Consider 11 compounds from patent publication US20200404919A1, “USE OF HETEROARYL-TRIAZOLE AND HETEROARYL-TETRAZOLE COMPOUNDS AS PESTICIDES IN PLANT PROTECTION” (Bayer Aktiengesellschaft, priority 2018, published 2020).

What all share (type): in vivo
In assay [1] the test system is Phaedon cochleariae. As to the kind of experiment: Phaedon cochleariae - spray test. Conditions: in Brassica rapa, foliar, 168 h, read-out: mortality in %. The essentials: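 Chinese cabbage leaf disks sprayed with compound diluted in water containing 1000 ppm emulsifier, then infested with mustard beetle larvae once dry. Mortality in % scored after 7 days (100% = all larvae killed, 0% = none).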

In assay [2] the test system is Spodoptera frugiperda. Nature of the assay: Spodoptera frugiperda - spray test. Conditions: in Zea mays, 168 h, read-out: mortality in %. The method, boiled down: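 Caterpillars are placed on sprayed, dried maize leaf sections. Sprays contain compound diluted in water with emulsifier at 1000 ppm; mortality in % is determined 7 days later.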
In assay [3] the test system is Myzus persicae. Nature of the assay: Myzus persicae - oral test. The following applies: 120 h, read-out: mortality in %. The method, boiled down:
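Mixed-population green peach aphids fed through parafilm on compound diluted in water plus IPL41 insect medium (33%+15% sugar). Mortality (%) scored after 5 days, 100% meaning all aphids killed.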

The test system of assay [4] is Aphis gossypii. Nature of the assay: Aphis gossypii - oral test. The following applies: 120 h, read-out: mortality in %. The method, boiled down:
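Mixed-population cotton aphids feed through parafilm on compound (acetone stock diluted in water) mixed with IPL41 insect medium containing sugar. Mortality (%) scored after 5 days.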

The test system of assay [5] is Diabrotica balteata. As to the kind of experiment: Diabrotica balteata - spray test. Conditions: 168 h, 160 μg/well, germinated wheat seeds, larvae, after 7 days, read-out: efficacy in %. The method, boiled down: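 Wheat seeds germinated 1 day on agar were sprayed with compound diluted in water with 1000 ppm emulsifier, then infested with 10-20 Diabrotica balteata larvae. Efficacy in % scored after 7 days: 100% = seedlings grown as untreated, uninfected control; 0% = no seedlings grown.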

Assay [6] has as its system Tetranychus urticae. Nature of the assay: Tetranychus urticae - spray test OP-resistant. Conditions: foliar, 144 h, French bean leaf disks, all instars, after 6 days. On the procedure: Tetranychus urticae—Spray Test OP-Resistant
To produce a suitable preparation of active compound, 1 part by weight of active compound is mixed with the stated amount of solvents and is diluted with water, containing an emulsifier concentration of 1000 ppm, to the desired concentration. Further test concentrations are prepared by dilution with emulsifier containing water.
French bean (Phaseolus vulgaris) leaf disks infected with all instars of the two spotted spidermite (Tetranychus urticae), are sprayed with a preparation of the active ingredient of the desired concentration.
After 6 days mortality in % is determined. 100% means all spider mites have been killed and 0% means none of the spider mites have been killed.

The test system of assay [7] is Nezara viridula. As to the kind of experiment: Nezara viridula - spray test 1. Conditions: in Hordeum vulgare, 96 h, read-out: mortality in %. The essentials: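 Barley plants carrying southern green stink bug larvae were sprayed with compound diluted in water with 1000 ppm emulsifier. Mortality (%) was scored after 4 days.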
Assay [8] deals with Nilaparvata lugens. Nature of the assay: Nilaparvata lugens - spray test 1. Conditions: in Oryza sativa, 96 h, read-out: mortality in %, 500 g/ha, rice plants, after 4 days. The method, boiled down: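 Rice plants (Oryza sativa) were sprayed with the compound preparation in water containing 1000 ppm emulsifier, then infested with brown planthoppers. Percent mortality scored after 4 days (100% = all killed, 0% = none).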

Assay [9] relates to Meloidogyne incognita. As to the kind of experiment: Meloidogyne incognita - test. The following applies: 336 h, salad seedlings in sand, after 14 days, read-out: nematicidal activity (percentage of gall formation). As to the method: Meloidogyne incognita—Test
Solvent: 125.0 parts by weight of acetone
To produce a suitable preparation of active compound, 1 part by weight of active compound is mixed with the stated amount of solvent, and the concentrate is diluted with water to the desired concentration.
Vessels are filled with sand, a solution of the active ingredient, a suspension containing eggs and larvae of the southern root-knot nematode (Meloidogyne incognita) and salad seeds. The salad seeds germinate and the seedlings grow. Galls develop in the roots.
After 14 days the nematicidal activity is determined on the basis of the percentage of gall formation. 100% means no galls were found and 0% means the number of galls found on the roots of the treated plants was equal to that in untreated control plants.

For assay [10], the system named is Culex quinquefasciatus. Nature of the assay: Culex test (CULXFAS surface treatment & contact assay). Conditions: 30 minutes exposure, 24 hours after contact, read-out: efficacy (mortality in percent). On the procedure: Culex Test (CULXFAS Surface Treatment & Contact Assay)
Solvent: Acetone+2000 ppm rapeseed oil methyl ester (RME)
In order to produce a sufficient, active ingredient containing solution it is necessary to solve the test-compound in an acetone/RME solvent mixture. This solution is pipetted onto a glazed tile and after evaporation of the acetone, adult mosquitoes of the species Culex quinquefasciatus (Brown house mosquito) are placed onto the dried surface. The exposure time is 30 minutes.
(§1) Mortality in percent (%) is determined 24 hours after contact to the treated surface. 100% mortality means that all test-insects are dead, whereas 0% means that not a single insect died.

Assay [11] has as its system Aedes aegypti strain MONHEIM. As to the kind of experiment: Aedes test (AEDSAE surface treatment & contact assay). Conditions: 30 minutes exposure, 24 hours after contact, read-out: efficacy (mortality in percent). As to the method:
Aedes Test (AEDSAE Surface Treatment & Contact Assay)
Solvent: Aceton+2000 ppm rapeseed oil methyl ester (RME)
In order to produce a sufficient, active ingredient containing solution it is necessary to solve the test-compound in an acetone/RME solvent mixture. This solution is pipetted onto a glazed tile and after evaporation of the acetone, adult mosquitoes of the species Aedes aegypti strain MONHEIM are placed onto the dried surface. The exposure time is 30 minutes.
as §1

The subject of assay [12] is Musca domestica strain WHO-N. Nature of the assay: Musca domestica test (MUSCDO surface treatment & contact assay). The following applies: 30 minutes exposure, 24 hours after contact, read-out: efficacy (mortality in percent). As to the method: Musca domestica Test (MUSCDO Surface Treatment & Contact Assay)
(§2) Solvent: Aceton+2000 ppm Rapeseed oil methyl ester (RME)
In order to produce a sufficient, active ingredient containing solution it is necessary to solve the test-compound in an acetone/RME solvent mixture. This solution is pipetted onto a glazed tile and after evaporation of the acetone, adult flies of the species Musca domestica strain WHO-N are placed onto the dried surface. The exposure time is 30 minutes.
as §1

Assay [13] relates to Blattella germanica strain PAULINIA
As to the kind of experiment: Blattella germanica test (BLTTGE surface treatment & contact assay). Conditions: 30 minutes exposure, 24 hours after contact, read-out: efficacy (mortality in percent). As to the method: Blattella germanica Test (BLTTGE Surface Treatment & Contact Assay)
as §2
In order to produce a sufficient, active ingredient containing solution it is necessary to solve the test-compound in an acetone/RME solvent mixture. This solution is pipetted onto a glazed tile and after evaporation of the acetone, adult animals of the species Blattella germanica strain PAULINIA are placed onto the dried surface. The exposure time is 30 minutes.
as §1

[14] abbreviates: surface concentration 4 mg/m^2, glazed tile.
[15] abbreviates: surface concentration 20 mg/m^2, glazed tile.

Regarding `C[C@H](NC(=O)c1cc(Cl)cc(C(F)(F)F)c1)c1ncnn1-c1ncccc1Cl` [Compound I-116], the mortality at 500 g/ha in [1] was 100%; in assay [2], 100%; in assay [6] it was 95%; in assay [7], 100%; in [8], 100%. For the same compound, the mortality at 20 ppm in [3] is 90%. Moreover, the mortality at 100 ppm in assay [4] worked out at 100%. In addition, in [5], the pest or weed control at 160 µg/disc, 160 µg/well is 100%.
For `CC(c1ncnn1-c1ccncn1)N(CC1CC1)C(=O)c1cc(Cl)cc(C(F)(F)F)c1` (stereo not shown) [Compound I-110], the mortality at 500 g/ha is 100% in assay [1]; 100% in assay [2]; 95% in [6]; 100% in [7]; 100% in assay [8]. Also, the mortality at 20 ppm in assay [3] worked out at 100%. Further, the mortality at 100 ppm in assay [4] is 100%. In assay [5], the pest or weed control at 160 µg/disc, 160 µg/well came out at 100%.
`CC(c1ncnn1-c1ncc(Cl)cn1)N(CC1CC1)C(=O)c1cc(Cl)cc(C(F)(F)F)c1` (stereo not shown) [Compound I-80, 3-chloro-N-[1-[2-(5-chloropyrimidin-2-yl)-1,2,4-triazol-3-yl]ethyl]-N-(cyclopropylmethyl)-5-(trifluoromethyl)benzamide]: the mortality at 500 g/ha in [1], in assay [2] and in assay [7] was 100% in each case. For the same compound, the mortality at 20 ppm in [3] turned out to be 100%. For the same compound, the mortality at 100 ppm in assay [4] was determined as 100%. Besides, the pest or weed control at 160 µg/disc, 160 µg/well in [5] is 100%. The pest or weed control at 20 ppm in assay [9] came out at 90%.
Regarding `CC(c1ncnn1-c1cncnc1)N(CC1CC1)C(=O)c1cc(Cl)cc(C(F)(F)F)c1` (stereo not shown) [Compound I-112], in assay [5], the pest or weed control at 160 µg/disc, 160 µg/well is 100%. Also, the mortality at 500 g/ha in assay [6] came out at 90%.
With `CC(c1ncnn1-c1ncccn1)N(CC1CC1)C(=O)c1cncc(Br)c1` (stereo not shown) [Compound I-79], the mortality at 500 g/ha came out at 100% in [1], 90% in [7] and 100% in assay [8]. Further, the pest or weed control at 160 µg/disc, 160 µg/well in [5] turned out to be 100%. Besides, in [9], the pest or weed control at 20 ppm amounted to 100%.
`CC(c1ncnn1-c1ncccn1)N(CC1CC1)C(=O)c1cc(Cl)cc(SC(F)(F)F)c1` (stereo not shown) [Compound I-107, 3-chloro-N-(cyclopropylmethyl)-N-[1-(2-pyrimidin-2-yl-1,2,4-triazol-3-yl)ethyl]-5-(trifluoromethylsulfanyl)benzamide]: the mortality at 500 g/ha in assay [1], in assay [2], in assay [7] and in assay [8] was 100% each time. Besides, in assay [3], the mortality at 20 ppm came out at 100%. For the same compound, the mortality at 100 ppm in [4] was found to be 100%. Besides, in assay [5], the pest or weed control at 160 µg/disc, 160 µg/well turned out to be 100%. Besides, in assay [9], the pest or weed control at 20 ppm came out at 90%.
For `CC(c1ncnn1-c1ncccn1)N(CC1CC1)C(=O)c1cc(C(F)(F)F)cc(C(F)(F)F)c1` (stereo not shown) [Compound I-48, N-(cyclopropylmethyl)-N-[1-(2-pyrimidin-2-yl-1,2,4-triazol-3-yl)ethyl]-3,5-bis(trifluoromethyl)benzamide], the mortality at 500 g/ha in assay [1], in [2], in [7] and in assay [8] was 100% in each case. In [3], the mortality at 20 ppm amounted to 100%. Also, in assay [4], the mortality at 100 ppm was 100%. Besides, in [5], the pest or weed control at 160 µg/disc, 160 µg/well is 100%. Further, in [9], the pest or weed control at 20 ppm was determined as 100%. In addition, the mortality at 4 mg/m2 in assay [10] (setting [14]), in assay [11] (setting [14]), in assay [12] (setting [14]) and in assay [13] (setting [14]) was 80 to 100% each time. The mortality at 20 mg/m2 in assay [10] (setting [15]), in assay [11] (setting [15]), in assay [12] (setting [15]) and in [13] (setting [15]) was 80 to 100% in each case.
As for `CC(c1ncnn1-c1ncccn1)N(CC1CC1)C(=O)c1cccc(Cl)c1` (stereo not shown) [Compound I-108], the mortality at 500 g/ha in [1], in assay [7] and in assay [8] was 100% each time. In addition, the pest or weed control at 160 µg/disc, 160 µg/well in assay [5] came to 100%. The pest or weed control at 20 ppm in assay [9] was determined as 90%.
On to `CC(c1ncnn1-c1ncccn1)N(CC(F)F)C(=O)c1cc(Cl)cc(C(F)(F)F)c1` (stereo not shown) [Compound I-89, 3-chloro-N-(2,2-difluoroethyl)-N-[1-(2-pyrimidin-2-yl-1,2,4-triazol-3-yl)ethyl]-5-(trifluoromethyl)benzamide], for which the mortality at 500 g/ha in assay [1] and in [2] was 100% each time. Further, the mortality at 20 ppm in assay [3] came out at 100%. For the same compound, in assay [4], the mortality at 100 ppm is 100%. Further, the pest or weed control at 160 µg/disc, 160 µg/well in assay [5] was determined as 100%. In addition, the pest or weed control at 20 ppm in assay [9] worked out at 100%.
On to `CC(c1ncnn1-c1ncccn1)N(CC1CC1)C(=O)c1cccc(C#N)c1` (stereo not shown) [Compound I-38, 3-cyano-N-(cyclopropylmethyl)-N-[1-(2-pyrimidin-2-yl-1,2,4-triazol-3-yl)ethyl]benzamide], for which the mortality at 500 g/ha in assay [1] and in assay [7] was 100% throughout. Moreover, in assay [3], the mortality at 20 ppm turned out to be 100%. Also, in assay [4], the mortality at 100 ppm amounted to 100%. In assay [5], the pest or weed control at 160 µg/disc, 160 µg/well was determined as 100%. Moreover, the pest or weed control at 20 ppm in assay [9] was determined as 100%.
Turning to `CC(c1ncnn1-c1ncccn1)N(CC1CC1)C(=O)c1cc(Cl)cc(Cl)c1` (stereo not shown) [Compound I-95], the mortality at 500 g/ha in assay [1] is 100%; in assay [2], 100%; in [7] it was 100%; in [8] it was 90%. In addition, the mortality at 20 ppm in [3] came out at 100%. In assay [4], the mortality at 100 ppm came to 100%. Moreover, the pest or weed control at 160 µg/disc, 160 µg/well in assay [5] worked out at 100%. In addition, the pest or weed control at 20 ppm in [9] worked out at 90%.
